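All cell lines were grown in 96-well plates and treated with compound for 48 hours. The concentration for 50% growth inhibition is given as GI50. At the TGI there is no net growth.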
Columns and labels:
Assay in all cases: growth of human tumour cells (NCI), 48 h
KM12 colon = system: KM12 colon
RPMI-8226 leukemia = system: RPMI-8226 leukemia
SK-MEL-5 melanoma = system: SK-MEL-5 melanoma
SR leukemia = system: SR leukemia
SK-MEL-2 melanoma = system: SK-MEL-2 melanoma
ACHN renal = system: ACHN renal
NCI-H226 lung = system: NCI-H226 lung
NCI/ADR-RES ovarian = system: NCI/ADR-RES ovarian
CCRF-CEM leukemia = system: CCRF-CEM leukemia
M14 melanoma = system: M14 melanoma

Row | Structure (SMILES) | GI50 (KM12 colon) [µM] | TGI (KM12 colon) [µM] | GI50 (RPMI-8226 leukemia) [µM] | TGI (RPMI-8226 leukemia) [µM] | GI50 (SK-MEL-5 melanoma) [µM] | TGI (SK-MEL-5 melanoma) [µM] | GI50 (SR leukemia) [µM] | TGI (SR leukemia) [µM] | GI50 (SK-MEL-2 melanoma) [µM] | TGI (SK-MEL-2 melanoma) [µM] | GI50 (ACHN renal) [µM] | TGI (ACHN renal) [µM] | GI50 (NCI-H226 lung) [µM] | TGI (NCI-H226 lung) [µM] | GI50 (NCI/ADR-RES ovarian) [µM] | TGI (NCI/ADR-RES ovarian) [µM] | TGI (CCRF-CEM leukemia) [µM] | TGI (M14 melanoma) [µM] | GI50 (CCRF-CEM leukemia) [µM] | GI50 (M14 melanoma) [µM]
1 | CN(C)/[N+]([O-])=N/Oc1cc(Nc2ccc(C(=O)O)cc2)c([N+](=O)[O-])cc1[N+](=O)[O-] | 14.6 | 30.8 | 23.6 | > 100 | 20.2 | 41.3 | 51.3 | > 100 | 17.1 | 39 | 26.7 | 62.4 | 27.4 | 70.4 | 29.8 | > 100 | – | – | – | –
2 | Cc1cccc(C)c1NC(=O)C(=O)C1C(=O)N(c2ccccc2)N=C1N (stereo not given) | – | > 100 | – | > 100 | – | > 100 | – | > 100 | – | > 100 | – | > 100 | – | > 100 | – | – | > 100 | > 100 | – | –
3 | COc1ccc(C2CC(c3cc(OC)c(OC)c(OC)c3)=NN2)cc1 (stereo not given) | 4.49 | > 100 | 3.23 | 18.6 | 4.29 | 17.8 | 1.01 | 4.43 | – | – | 26.2 | > 100 | 23.8 | > 100 | 6.67 | 94.8 | > 100 | > 100 | 6.34 | 13.3
4 | Cc1ccc(/C=C2\CCOC2=O)cc1 | > 100 | > 100 | – | – | > 100 | > 100 | > 100 | > 100 | > 100 | > 100 | > 100 | > 100 | > 100 | > 100 | > 100 | > 100 | > 100 | > 100 | > 100 | > 100
5 | COc1ccccc1NC(=O)C1=C(C)NC(C)=C(C(=O)Nc2ccccc2OC)C1c1ccc(C(C)C)cc1 | – | > 100 | – | > 100 | – | > 100 | – | > 100 | – | > 100 | – | > 100 | – | > 100 | – | – | > 1 | > 100 | – | –
6 | O=C(O)/C(Cl)=C(/Cl)C(=O)Nc1cccc(Cl)c1 | – | 47.7 | – | 46.2 | – | 33.1 | – | 26.4 | – | 49.8 | – | 36.8 | – | 67.2 | – | – | 19 | 43.2 | – | –
7 | O=Cc1ccc(C(F)(F)F)cc1.[C-]#[O+].[C-]#[O+].[C-]#[O+].[Cr] | 24.6 | 91.5 | – | – | 12.6 | 28.3 | 15.1 | 46.6 | 23.7 | > 100 | 30.2 | > 100 | 21.6 | 98.4 | 28.4 | > 100 | 65.1 | 37 | 9.87 | 12.9
8 | CCCCCCCCSC1=CC(=O)C(OC)=C(OC)C1=O | 3.43 | 13.7 | 1.27 | > 100 | 1.6 | 8.79 | 2.27 | > 100 | 4.3 | 13.7 | 1.58 | 2.98 | 5.4 | 27.5 | 2.49 | 7.1 | – | 9.86 | – | 2.06
